Data as given in US10143718B2, “Covalent inhibitors of dual oxidase 1 (DUOX 1)” (The University of Vermont and State Agricultural College, priority 2015, dated 2018).
Entries after “also recorded” stand apart in the source; their conditions may differ.

Tests used:
[1] = test system: allergic inflammation and mucus metaplasia; experiment: Acrolein exposure in a mouse model of allergic asthma; format: in vivo; settings: non-toxic doses of acrolein
[2] = test system: innate airway responses to HDM; experiment: Acrolein inhalation, then allergen challenge; BAL cytokines analyzed; format: in vivo; settings: mice; acrolein 5 ppm, 4 hrs; then HDM (50 micrograms) or Alternaria alternata challenge; BAL 1 hour later
Method: Electrophilic compounds can suppress allergic inflammation and innate allergen responses. […] Mice were exposed to acrolein (5 ppm; 4 hrs, and subsequently challenged with HDM (50 micrograms), and BAL cytokines were analyzed 1 hour later.

[3] = test system: mouse tracheal epithelial cells; experiment: Allergen-induced cytokine secretion from cultured mouse tracheal epithelial cells; format: cell-based; settings: for HDM-induced IL-33 secretion (culture media): mouse tracheal epithelial cells, pretreated 30 minutes, then HDM for 2 hrs
Method: (§1) Cells were pretreated with acrolein (ACR), cinnamaldehyde (CIN), curcumin (Curc) or sulforaphane (SFN) for 30 minutes and then stimulated with HDM for 2 hrs. IL-33 was measured in culture media.

[4] = test system: human bronchial epithelial cell line HBE1; experiment: Allergen-induced cytokine secretion from HBE1 cells; format: cell-based; settings: acrolein pretreatment
Method: as §1

[5] = test system: allergen-mediated Ca^2+ increases; experiment: Allergen-induced Ca2+ increases in epithelial cells; format: cell-based; settings: non-toxic concentrations (3-30 micromolar)
Excerpt: (§2) Based on identifying the involvement of Ca^2+-dependent DUOX1 activation and subsequent EGFR activation in allergen-induced IL-33 secretion from epithelial cells), the impact of acrolein exposure on allergen-induced Ca^2+ increases, extracellular H2O2 production (as a measure of DUOX1 activation) and EGFR tyrosine phosphorylation (as an indicator of EGFR activation) were studied.

[6] = test system: EGFR; experiment: Allergen-induced EGFR tyrosine phosphorylation (EGFR activation); format: cell-based; settings: non-toxic concentrations (3-30 micromolar)
Excerpt: as §2

[7] = target: T1, DUOX1 (Homo sapiens, UniProt Q9NRD9); experiment: Extracellular H2O2 production by HBE1 cells as a measure of DUOX1 activation (lactoperoxidase/tyrosine, HPLC); format: cell-based; settings: for ATP-induced H2O2 production: electrophile 30 min prior to ATP stimulation, media collected after 10 min, 1-30 micromolar for food-derived electrophiles
T1 construct: endogenous in cells; host or cells: HBE1 (immortalized human bronchial epithelial cells)
T1 sequence (Q9NRD9 22-1551): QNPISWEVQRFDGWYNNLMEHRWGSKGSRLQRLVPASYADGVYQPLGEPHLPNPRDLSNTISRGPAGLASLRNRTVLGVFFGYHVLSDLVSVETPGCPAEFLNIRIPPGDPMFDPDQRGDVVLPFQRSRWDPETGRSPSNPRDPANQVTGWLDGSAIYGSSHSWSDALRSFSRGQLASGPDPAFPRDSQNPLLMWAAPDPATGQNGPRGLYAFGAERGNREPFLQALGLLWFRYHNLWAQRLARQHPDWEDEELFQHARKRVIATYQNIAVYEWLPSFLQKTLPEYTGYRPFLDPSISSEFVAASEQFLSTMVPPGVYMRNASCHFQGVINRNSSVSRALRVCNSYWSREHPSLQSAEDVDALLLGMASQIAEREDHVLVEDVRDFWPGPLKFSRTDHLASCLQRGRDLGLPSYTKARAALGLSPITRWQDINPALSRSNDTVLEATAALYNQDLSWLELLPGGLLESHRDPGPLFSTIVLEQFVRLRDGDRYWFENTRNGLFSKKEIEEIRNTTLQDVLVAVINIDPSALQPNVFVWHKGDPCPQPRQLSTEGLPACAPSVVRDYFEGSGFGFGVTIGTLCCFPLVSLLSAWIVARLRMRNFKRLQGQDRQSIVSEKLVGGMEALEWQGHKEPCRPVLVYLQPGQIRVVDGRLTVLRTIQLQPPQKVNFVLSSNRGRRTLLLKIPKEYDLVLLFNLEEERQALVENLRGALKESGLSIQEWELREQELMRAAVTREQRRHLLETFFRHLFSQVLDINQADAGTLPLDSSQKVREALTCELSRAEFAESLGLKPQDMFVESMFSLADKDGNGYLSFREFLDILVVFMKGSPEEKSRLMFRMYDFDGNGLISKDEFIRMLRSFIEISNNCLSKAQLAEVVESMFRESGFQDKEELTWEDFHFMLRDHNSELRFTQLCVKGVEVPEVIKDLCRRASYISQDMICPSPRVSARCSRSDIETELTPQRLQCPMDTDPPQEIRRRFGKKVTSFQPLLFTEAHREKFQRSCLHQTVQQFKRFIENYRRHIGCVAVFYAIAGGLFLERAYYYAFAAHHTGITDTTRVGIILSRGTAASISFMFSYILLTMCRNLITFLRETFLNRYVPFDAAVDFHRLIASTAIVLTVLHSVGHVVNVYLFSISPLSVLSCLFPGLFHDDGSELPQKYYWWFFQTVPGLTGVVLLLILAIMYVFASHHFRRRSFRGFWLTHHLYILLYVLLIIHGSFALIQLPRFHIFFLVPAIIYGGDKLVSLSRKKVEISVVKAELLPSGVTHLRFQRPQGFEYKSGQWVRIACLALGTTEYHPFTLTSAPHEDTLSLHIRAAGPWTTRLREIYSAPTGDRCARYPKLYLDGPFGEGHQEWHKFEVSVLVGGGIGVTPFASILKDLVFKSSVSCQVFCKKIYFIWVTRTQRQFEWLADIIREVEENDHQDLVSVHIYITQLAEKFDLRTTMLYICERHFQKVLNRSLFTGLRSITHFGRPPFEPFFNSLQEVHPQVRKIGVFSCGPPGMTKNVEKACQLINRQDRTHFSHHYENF
Excerpt: as §2
Preliminary studies of DUOX1 targeting by electrophiles. Acrolein (2,3-propenal) is a highly reactive electrophile and a well-recognized environmental pollutant. In this example, other electrophilic compounds with similar chemical reactivity were determined to be capable of inhibiting allergen-induced DUOX1 activation. These studies were performed using immortalized human bronchoepithelial cells (HBE1) which were cultured and exposed to different electrophiles at various doses for 30 min prior to cell stimulation with HDM or with ATP (a known activator of DUOX1). Conditioned culture media was collected 10 min after cell stimulation and mixed for 15 min with 10 micrograms/mL lactoperoxidase (Sigma) and 1 mM tyrosine (Gibco), which results in formation of fluorescent dityrosine product as a function of H2O2 concentration, and was analyzed by HPLC with fluorescence detection and compared with exogenous standards based on similarly treated stock solutions of H2O2. The resulting data were corrected for basal H2O2 production by unstimulated cells and ATP-dependent H2O2 production in the presence of electrophiles were expressed relative to that by ATP alone (which was set at 100%).

[8] = test system: cellular GSH; experiment: Cellular GSH depletion; format: cell-based; settings: at concentrations inhibiting allergen-induced IL-33 secretion and H2O2 production
[9] = target: T1, DUOX1; experiment: ARP labeling of DUOX1 in HBE1 cells (biotin tag, avidin purification, western blot); format: binding; settings: 0, 10, or 30 micromolar for 30 minutes
Excerpt: Since these various electrophiles act primarily by targeting susceptible cysteine residues by Michael addition, it was believed that they may directly target DUOX1 protein on one of its accessible cysteine residues within its extracellular peroxidase homology (PHD) domain. […] Moreover, since the PHD domain is unique to DUOX and not present in other NADPH oxidase isoforms, this targeting approach would avoid non-selective actions on these other isoforms, a common problem with most NADPH oxidase inhibitors currently in development. To determine whether acrolein-mediated inhibition of DUOX1 activity (FIG. 4) was associated with direct targeting of DUOX1 protein, HBE1 cells were treated with 0, 10, or 30 micromolar acrolein for 30 minutes and derivatized cell lysates with aldehyde reactive probe (ARP; Pierce), which converts acrolein-induced Michael adducts to induce a biotin tag. Biotin-tagged proteins were subsequently purified by avidin chromatography and collected biotin-tagged proteins (eluates) were then analyzed by 10% SDS-PAGE and western blotting with an alpha-DUOX1 antibody. Whole cell lysate were analyzed accordingly as loading controls.

SMILES	HDM-induced IL-33 secretion (culture media) [3]	ATP-induced H2O2 production [7]	further results
C=CC=O [acrolein, 2,3-propenal]	inhibited HDM-induced IL-33 secretion	dose-dependent inhibition	allergic inflammation and mucus metaplasia [1]: dramatically suppress allergic inflammation and mucus metaplasia; production of IL-33, IL-1α or IL-17E (BAL cytokines) [2]: dramatically minimized production of IL-33, IL-1α or IL-17E; allergen-induced secretion of IL-33, IL-1α or IL-17E ([3]; cultured tracheal epithelial cells from mice, acrolein pretreatment): inhibits allergen-induced secretion of IL-33, IL-1α or IL-17E in a dose-dependent manner; allergen-induced secretion of IL-33, IL-1α or IL-17E [4]: inhibits allergen-induced secretion of IL-33, IL-1α or IL-17E in a dose-dependent manner; allergen-mediated Ca^2+ increases [5]: did not affect allergen-mediated Ca^2+ increases; allergen-induced EGFR autophosphorylation [6]: markedly suppressed allergen-induced EGFR autophosphorylation; allergen-induced extracellular H2O2 production ([7]; non-toxic concentrations (3-30 micromolar)): markedly suppressed; also recorded: inhibits allergen-induced H2O2 production; cellular GSH depletion [8]: occurred in the absence of cellular GSH depletion; ARP labeling of DUOX1 (direct adduct with DUOX1) [9]: induced dose-dependent ARP labeling of DUOX1
O=C/C=C/c1ccccc1 [cinnamaldehyde, (2E)-3-phenylprop-2-enal]	inhibited HDM-induced IL-33 secretion	capable of inhibiting ATP-mediated H2O2 production; also recorded: dose-dependent inhibition	–
COc1cc(/C=C/C(=O)CC(=O)/C=C/c2ccc(O)c(OC)c2)ccc1O [curcumin, (1E,6E)-1,7-Bis(4-hydroxy-3-methoxyphenyl)-1,6-heptadiene-3,5-dione]	inhibited HDM-induced IL-33 secretion	capable of inhibiting ATP-mediated H2O2 production	–
C=CS(=O)(=O)Oc1ccccc1 [phenyl vinyl sulfonate]	–	dose-dependent inhibition	–
C=CS(=O)(=O)c1ccccc1 [phenyl vinyl sulfone]	–	Inhibitory effects	–
C[S+]([O-])CCCCN=C=S (stereo not shown) [sulforaphane, 1-Isothiocyanato-4-methylsulfinylbutane]	inhibited HDM-induced IL-33 secretion	capable of inhibiting ATP-mediated H2O2 production; also recorded: dose-dependent inhibition	–
